In US20230219963A1, “PYRROLO[2,3-D]PYRIMIDINE DERIVATIVES” (Pfizer Inc., priority 2020, published 2023) one finds IC50 data, which are given here for 2 molecules.

pIC50: −log10 of the molar value.

The subject of the assay is IL-31 induced pSTAT3. As to the kind of experiment: IL-31-induced pSTAT3 in IFNγ-primed THP-1 cells. Type of assay: cell-based. The conditions noted are these: Homo sapiens, JAK1/JAK2, read-out: IL-31 induced pSTAT3, cellular potency IC50. As for the experimental part:
THP-1 cells were maintained in RPMI 1640 medium containing 10% FBS, 50 μM 2 mercaptoethanol, 50 U/mL penicillin, 50 µg/mL streptomycin and 2 mM L-glutamine. THP 1 cells were treated with IFNγ (20 ng/mL) for 18 hours. IFNγ primed THP-1 cells were resuspended in fresh RPMI 1640 medium, treated with compounds (0.0003 to 20 μM) for 60 minutes, followed by stimulation with IL-31 (1 μg/mL) for additional 10 minutes. Cells were then fixed by 2% paraformaldehyde and permeabilized by 90% methanol. Fixed and permeabilized cells were stained with AlexaFluor647™ labeled anti-pSTAT3 antibody (1 to 150 dilution).
After overnight incubation at 4° C., anti-pSTAT stained samples were transferred into 96-well polypropylene U-bottom plates and flow cytometric analysis was performed on a LSR Fortessa™ equipped with a HTS plate loader. For human whole blood samples, lymphocyte population was gated for pSTAT histogram analysis for IFNα, IL-10, IL-12, IL-15, IL-21, IL-23, and IL-27-treated samples; CD14^+ cells for IFNγ-treated samples; CD3^+ cells for IL-6 and TSLP-treated samples; all events (entire populations) for EPO-treated samples. Entire populations of keratinocytes and THP-1 cells were gated for the IL-4, IL-13, IL-22 and IL-31 assays. Background fluorescence was defined using unstimulated cells and a gate was placed at the foot of the peak to include ˜0.5% gated population. Histogram statistical analysis was performed using FACSDiva version 8.0. Relative fluorescence unit, which measures the level of pSTAT, was calculated by multiplying the percent positive population and its mean fluorescence. Inhibition curves and half maximal inhibitory concentration (IC50) values were determined using Prism™ software (Version 8) or the Activity Base data analysis software (ID Business Solutions).

For `C[C@H](O)CS(=O)(=O)N[C@H]1C[C@@H](N(C)c2ncnc3[nH]ccc23)C1` (single isomer, unassigned) [IA (M2)], the pIC50 (commonly the IC50 on a negative log10 scale, so that one unit is a factor of ten) was 7.25.
With `CN(c1ncnc2[nH]ccc12)[C@H]1C[C@@H](NS(=O)(=O)CCCO)C1` [IB (M1), 3-Hydroxy-N-(cis-3-(methyl(7H-pyrrolo[2,3-d]pyrimidin-4-yl)amino)cyclobutyl)propane-1-sulfonamide] the figure was 7.10.
